Results published in ChEMBL document CHEMBL1201861, “Genomics of Drug Sensitity in Cancer screening data, Wellcome Trust Sanger Institute”.

Assays:
Test in all cases: cells
Type in all cases: functional, cell-based, Homo sapiens
COLO-792 = test system: COLO-792
Description: SANGER: Inhibition of human COLO-792 cell growth in a cell viability assay.

COR-L23 = test system: COR-L23;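 also: cell viability assay measuring how strongly compounds suppress growth of COR-L23 cells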
Description: SANGER: Inhibition of human COR-L23 cell growth in a cell viability assay.

EFO-21 = test system: EFO-21;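 also: growth inhibition of EFO-21 cells measured with a viability assay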
Description: SANGER: Inhibition of human EFO-21 cell growth in a cell viability assay.

HCC1937 = test system: HCC1937;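 also: growth inhibition measured with a cell viability read-out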
Description: SANGER: Inhibition of human HCC1937 cell growth in a cell viability assay.

HCT-116 = test system: HCT-116
Description: SANGER: Inhibition of human HCT-116 cell growth in a cell viability assay.

HEC-1 = test system: HEC-1;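 also: growth inhibition of the cell line, read out with a cell viability assay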
Description: SANGER: Inhibition of human HEC-1 cell growth in a cell viability assay.

Hs-578T = test system: Hs-578T
Description: SANGER: Inhibition of human Hs-578-T cell growth in a cell viability assay.

HuO-3N1 = test system: HuO-3N1;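 also: cell viability readout used to measure how strongly compounds suppress proliferation of human HuO-3N1 cells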
Description: SANGER: Inhibition of human HuO-3N1 cell growth in a cell viability assay.

KYSE-180 = test system: KYSE-180;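 also: growth inhibition of KYSE-180 cells, read out with a cell viability assay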
Description: SANGER: Inhibition of human KYSE-180 cell growth in a cell viability assay.

LN-405 = test system: LN-405
Description: SANGER: Inhibition of human LN-405 cell growth in a cell viability assay.

MCF7 = test system: MCF7;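 also: growth inhibition of human MCF7 cells, read out with a cell viability assay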
Description: SANGER: Inhibition of human MCF7 cell growth in a cell viability assay.

MIA PaCa-2 = test system: MIA PaCa-2;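 also: growth inhibition of MIA PaCa-2 cells, read out with a cell viability assay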
Description: SANGER: Inhibition of human MIA-PaCa-2 cell growth in a cell viability assay.

MKN-28 = test system: MKN-28;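 also: cell viability assay read-out, IC50 reflects suppression of growth of human MKN-28 cells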
Description: SANGER: Inhibition of human MKN28 cell growth in a cell viability assay.

NCI-H2347 = test system: NCI-H2347;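 also: growth inhibition of the cell line, read out with a cell viability assay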
Description: SANGER: Inhibition of human NCI-H2347 cell growth in a cell viability assay.

NCI-H292 = test system: NCI-H292;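 also: growth inhibition of NCI-H292 cells, read out with a cell viability assay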
Description: SANGER: Inhibition of human NCI-H292 cell growth in a cell viability assay.

NCI-H520 = test system: NCI-H520;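 also: growth inhibition of NCI-H520 cells, measured by a cell viability assay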
Description: SANGER: Inhibition of human NCI-H520 cell growth in a cell viability assay.

NCI-H661 = test system: NCI-H661;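 also: cell viability assay read-out, IC50 being the concentration that inhibits growth of the cells by half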
Description: SANGER: Inhibition of human NCI-H661 cell growth in a cell viability assay.

NUGC-3 = test system: NUGC-3;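 also: growth inhibition of human NUGC-3 cells, read out with a cell viability assay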
Description: SANGER: Inhibition of human NUGC-3 cell growth in a cell viability assay.

PFSK-1 = test system: PFSK-1;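 also: cell viability assay measuring how strongly compounds suppress growth of human PFSK-1 cells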
Description: SANGER: Inhibition of human PFSK-1 cell growth in a cell viability assay.

RCM-1 = test system: RCM-1;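 also: growth inhibition of the RCM-1 line, determined with a cell viability readout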
Description: SANGER: Inhibition of human RCM-1 cell growth in a cell viability assay.

RERF-LC-MS = test system: RERF-LC-MS;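 also: growth inhibition of human RERF-LC-MS cells, read out by a cell viability assay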
Description: SANGER: Inhibition of human RERF-LC-MS cell growth in a cell viability assay.

RPMI-7951 = test system: RPMI-7951
Description: SANGER: Inhibition of human RPMI-7951 cell growth in a cell viability assay.

SCC-9 = test system: SCC-9;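 also: Read-out is a cell viability assay, with values giving inhibition of cell growth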
Description: SANGER: Inhibition of human SCC-9 cell growth in a cell viability assay.

SNU-423 = test system: SNU-423
Description: SANGER: Inhibition of human SNU-423 cell growth in a cell viability assay.

SNU-449 = test system: SNU-449
Description: SANGER: Inhibition of human SNU-449 cell growth in a cell viability assay.

SW1417 = test system: SW1417;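 also: growth inhibition of human SW1417 cells, read out with a cell viability assay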
Description: SANGER: Inhibition of human SW1417 cell growth in a cell viability assay.

SW1573 = test system: SW1573;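 also: growth inhibition of SW1573 cells, read out with a cell viability assay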
Description: SANGER: Inhibition of human SW1573 cell growth in a cell viability assay.

SW1783 = test system: SW1783;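 also: cell growth inhibition measured with a viability assay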
Description: SANGER: Inhibition of human SW1783 cell growth in a cell viability assay.

SW-620 = test system: SW-620;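 also: growth inhibition of human SW-620 cells, measured by a cell viability assay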
Description: SANGER: Inhibition of human SW620 cell growth in a cell viability assay.

SW756 = test system: SW756;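 also: growth inhibition of human SW756 cells, read out with a cell viability assay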
Description: SANGER: Inhibition of human SW756 cell growth in a cell viability assay.

SiHa = test system: SiHa;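 also: Viability-based readout of growth inhibition in SiHa cells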
Description: SANGER: Inhibition of human SiHa cell growth in a cell viability assay.

8505C = test system: 8505C
Description: SANGER: Inhibition of human 8505C cell growth in a cell viability assay.

A 172 = test system: A 172;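 also: growth inhibition of A172 cells, measured with a cell viability readout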
Description: SANGER: Inhibition of human A172 cell growth in a cell viability assay.

A549 = test system: A549;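 also: growth inhibition of A549 cells, read out with a cell viability assay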
Description: SANGER: Inhibition of human A549 cell growth in a cell viability assay.

AN3-CA = test system: AN3-CA;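 also: growth inhibition of human AN3-CA cells measured by a cell viability assay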
Description: SANGER: Inhibition of human AN3-CA cell growth in a cell viability assay.

C-33-A = test system: C-33-A;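 also: cell viability assay measuring growth inhibition of C-33-A cells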
Description: SANGER: Inhibition of human C-33-A cell growth in a cell viability assay.

UO-31 = test system: UO-31;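 also: cell viability assay measuring inhibition of cell growth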
Description: SANGER: Inhibition of human U031 cell growth in a cell viability assay.

CAMA-1 = test system: CAMA-1;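 also: growth inhibition of CAMA-1 cells, read out with a cell viability assay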
Description: SANGER: Inhibition of human CAMA-1 cell growth in a cell viability assay.

CAPAN-1 = test system: CAPAN-1;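 also: growth suppression of CAPAN-1 cells, read out by a cell viability assay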
Description: SANGER: Inhibition of human CAPAN-1 cell growth in a cell viability assay.

CHL-1 = test system: CHL-1;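 also: cell growth inhibition, read out with a cell viability assay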
Description: SANGER: Inhibition of human CHL-1 cell growth in a cell viability assay.

Molecule: Nc1cccc2c1CN(C1CCC(=O)NC1=O)C2=O (stereo not given) [LENALIDOMIDE]
- IC50 (COLO-792; Homo sapiens, COLO-792): > 5 µM
- IC50 (COR-L23; Homo sapiens, COR-L23): > 5 µM
- IC50 (EFO-21; Homo sapiens, EFO-21): > 5 µM
- IC50 (HCC1937; Homo sapiens, HCC1937): > 5 µM
- IC50 (HCT-116; Homo sapiens, HCT-116): > 5 µM
- IC50 (HEC-1; Homo sapiens, HEC-1): > 5 µM
- IC50 (Hs-578T; Homo sapiens, Hs-578T): > 5 µM
- IC50 (HuO-3N1; Homo sapiens, HuO-3N1): > 5 µM
- IC50 (KYSE-180; Homo sapiens, KYSE-180): > 5 µM
- IC50 (LN-405; Homo sapiens, LN-405): > 5 µM
- IC50 (MCF7; Homo sapiens, MCF7): > 5 µM
- IC50 (MIA PaCa-2; Homo sapiens, MIA PaCa-2): > 5 µM
- IC50 (MKN-28; Homo sapiens, MKN-28): > 5 µM
- IC50 (NCI-H2347; Homo sapiens, NCI-H2347): > 5 µM
- IC50 (NCI-H292; Homo sapiens, NCI-H292): > 5 µM
- IC50 (NCI-H520; Homo sapiens, NCI-H520): > 5 µM
- IC50 (NCI-H661; Homo sapiens, NCI-H661): > 5 µM
- IC50 (NUGC-3; Homo sapiens, NUGC-3): > 5 µM
- IC50 (PFSK-1; Homo sapiens, PFSK-1): > 5 µM
- IC50 (RCM-1; Homo sapiens, RCM-1): > 5 µM
- IC50 (RERF-LC-MS; Homo sapiens, RERF-LC-MS): > 5 µM
- IC50 (RPMI-7951; Homo sapiens, RPMI-7951): > 5 µM
- IC50 (SCC-9; Homo sapiens, SCC-9): > 5 µM
- IC50 (SNU-423; Homo sapiens, SNU-423): > 5 µM
- IC50 (SNU-449; Homo sapiens, SNU-449): > 5 µM
- IC50 (SW1417; Homo sapiens, SW1417): > 5 µM
- IC50 (SW1573; Homo sapiens, SW1573): > 5 µM
- IC50 (SW1783; Homo sapiens, SW1783): > 5 µM
- IC50 (SW-620; Homo sapiens, SW-620): > 5 µM
- IC50 (SW756; Homo sapiens, SW756): > 5 µM
- IC50 (SiHa; Homo sapiens, SiHa): > 5 µM
- IC50 (8505C; Homo sapiens, 8505C): > 5 µM
- IC50 (A 172; Homo sapiens, A 172): > 5 µM
- IC50 (A549; Homo sapiens, A549): > 5 µM
- IC50 (AN3-CA; Homo sapiens, AN3-CA): > 5 µM
- IC50 (C-33-A; Homo sapiens, C-33-A): > 5 µM
- IC50 (UO-31; Homo sapiens, UO-31): > 5 µM
- IC50 (CAMA-1; Homo sapiens, CAMA-1): > 5 µM
- IC50 (CAPAN-1; Homo sapiens, CAPAN-1): > 5 µM
- IC50 (CHL-1; Homo sapiens, CHL-1): > 5 µM

Molecule: CISPLATIN
- IC50 (COLO-792; colo-792): 5.73 µM
- IC50 (COR-L23; cor-l23): 5.63 µM
- IC50 (EFO-21; efo-21): 33.7 µM
- IC50 (HCC1937; hcc1937): 137 µM
- IC50 (HCT-116; hct-116): 8.68 µM
- IC50 (HEC-1; hec-1): 13.3 µM
- IC50 (Hs-578T; hs-578-t): 11.3 µM
- IC50 (HuO-3N1; huo-3n1): 8.87 µM
- IC50 (KYSE-180; kyse-180): 5.82 µM
- IC50 (LN-405; ln-405): 15.5 µM
- IC50 (MCF7; mcf7): 15.2 µM
- IC50 (MIA PaCa-2; mia paca-2): 5.35 µM
- IC50 (MKN-28; mkn-28): 31.4 µM
- IC50 (NCI-H2347; nci-h2347): 218 µM
- IC50 (NCI-H292; nci-h292): 364 µM
- IC50 (NCI-H520; nci-h520): 72.8 µM
- IC50 (NCI-H661; nci-h661): 13.6 µM
- IC50 (NUGC-3; nugc-3): 2.14 µM
- IC50 (PFSK-1; pfsk-1): 37.7 µM
- IC50 (RCM-1; rcm-1): 123 µM
- IC50 (RERF-LC-MS; rerf-lc-ms): 418 µM
- IC50 (RPMI-7951; rpmi-7951): 4.06 µM
- IC50 (SCC-9; scc-9): 23.6 µM
- IC50 (SNU-423; snu-423): 111 µM
- IC50 (SNU-449; snu-449): 72 µM
- IC50 (SW1417; sw1417): 194 µM
- IC50 (SW1573; sw1573): 43.3 µM
- IC50 (SW1783; sw1783): 23.3 µM
- IC50 (SW-620; sw-620): 160 µM
- IC50 (SW756; sw756): 9.26 µM
- IC50 (SiHa; siha): 17 µM
- IC50 (8505C; 8505c): 34.6 µM
- IC50 (A 172; a 172): 78.9 µM
- IC50 (A549; a549): 18.8 µM
- IC50 (AN3-CA; an3-ca): 9.94 µM
- IC50 (C-33-A; c-33-a): 9.11 µM
- IC50 (UO-31; uo-31): 12.9 µM
- IC50 (CAMA-1; cama-1): 117 µM
- IC50 (CAPAN-1; capan-1): 24.3 µM
- IC50 (CHL-1; chl-1): 99.2 µM

Molecule: CS(=O)(=O)c1ccc(C(=O)Nc2ccc(Cl)c(-c3ccccn3)c2)c(Cl)c1 [VISMODEGIB]
- IC50 (COLO-792; Homo sapiens, COLO-792): > 10 µM
- IC50 (COR-L23; Homo sapiens, COR-L23): > 10 µM
- IC50 (EFO-21; Homo sapiens, EFO-21): > 10 µM
- IC50 (HCC1937; Homo sapiens, HCC1937): > 10 µM
- IC50 (HCT-116; Homo sapiens, HCT-116): > 10 µM
- IC50 (HEC-1; Homo sapiens, HEC-1): > 10 µM
- IC50 (Hs-578T; Homo sapiens, Hs-578T): > 10 µM
- IC50 (HuO-3N1; Homo sapiens, HuO-3N1): 9.6 µM
- IC50 (KYSE-180; Homo sapiens, KYSE-180): > 10 µM
- IC50 (LN-405; Homo sapiens, LN-405): > 10 µM
- IC50 (MCF7; Homo sapiens, MCF7): > 10 µM
- IC50 (MIA PaCa-2; Homo sapiens, MIA PaCa-2): > 10 µM
- IC50 (MKN-28; Homo sapiens, MKN-28): > 10 µM
- IC50 (NCI-H2347; Homo sapiens, NCI-H2347): > 10 µM
- IC50 (NCI-H292; Homo sapiens, NCI-H292): > 10 µM
- IC50 (NCI-H520; Homo sapiens, NCI-H520): > 10 µM
- IC50 (NCI-H661; Homo sapiens, NCI-H661): > 10 µM
- IC50 (NUGC-3; Homo sapiens, NUGC-3): > 10 µM
- IC50 (PFSK-1; Homo sapiens, PFSK-1): > 10 µM
- IC50 (RCM-1; Homo sapiens, RCM-1): > 10 µM
- IC50 (RERF-LC-MS; Homo sapiens, RERF-LC-MS): > 10 µM
- IC50 (RPMI-7951; Homo sapiens, RPMI-7951): > 10 µM
- IC50 (SCC-9; Homo sapiens, SCC-9): > 10 µM
- IC50 (SNU-423; Homo sapiens, SNU-423): > 10 µM
- IC50 (SNU-449; Homo sapiens, SNU-449): > 10 µM
- IC50 (SW1417; Homo sapiens, SW1417): > 10 µM
- IC50 (SW1573; Homo sapiens, SW1573): > 10 µM
- IC50 (SW1783; Homo sapiens, SW1783): > 10 µM
- IC50 (SW-620; Homo sapiens, SW-620): > 10 µM
- IC50 (SW756; Homo sapiens, SW756): > 10 µM
- IC50 (SiHa; Homo sapiens, SiHa): > 10 µM
- IC50 (8505C; Homo sapiens, 8505C): > 10 µM
- IC50 (A 172; Homo sapiens, A 172): > 10 µM
- IC50 (A549; Homo sapiens, A549): > 10 µM
- IC50 (AN3-CA; Homo sapiens, AN3-CA): > 10 µM
- IC50 (C-33-A; Homo sapiens, C-33-A): > 10 µM
- IC50 (UO-31; Homo sapiens, UO-31): > 10 µM
- IC50 (CAMA-1; Homo sapiens, CAMA-1): > 10 µM
- IC50 (CAPAN-1; Homo sapiens, CAPAN-1): > 10 µM
- IC50 (CHL-1; Homo sapiens, CHL-1): > 10 µM

Molecule: Cc1cn(-c2cc(NC(=O)c3ccc(C)c(Nc4nccc(-c5cccnc5)n4)c3)cc(C(F)(F)F)c2)cn1 [NILOTINIB]
- IC50 (COLO-792; Homo sapiens, COLO-792): > 2 µM
- IC50 (COR-L23; Homo sapiens, COR-L23): > 2 µM
- IC50 (EFO-21; Homo sapiens, EFO-21): > 2 µM
- IC50 (HCC1937; Homo sapiens, HCC1937): > 2 µM
- IC50 (HCT-116; Homo sapiens, HCT-116): > 2 µM
- IC50 (HEC-1; Homo sapiens, HEC-1): > 2 µM
- IC50 (Hs-578T; Homo sapiens, Hs-578T): > 2 µM
- IC50 (HuO-3N1; Homo sapiens, HuO-3N1): > 2 µM
- IC50 (KYSE-180; Homo sapiens, KYSE-180): > 2 µM
- IC50 (LN-405; Homo sapiens, LN-405): > 2 µM
- IC50 (MCF7; Homo sapiens, MCF7): > 2 µM
- IC50 (MIA PaCa-2; Homo sapiens, MIA PaCa-2): > 2 µM
- IC50 (MKN-28; Homo sapiens, MKN-28): > 2 µM
- IC50 (NCI-H2347; Homo sapiens, NCI-H2347): > 2 µM
- IC50 (NCI-H292; Homo sapiens, NCI-H292): > 2 µM
- IC50 (NCI-H520; Homo sapiens, NCI-H520): > 2 µM
- IC50 (NCI-H661; Homo sapiens, NCI-H661): > 2 µM
- IC50 (NUGC-3; Homo sapiens, NUGC-3): > 2 µM
- IC50 (PFSK-1; Homo sapiens, PFSK-1): > 2 µM
- IC50 (RCM-1; Homo sapiens, RCM-1): > 2 µM
- IC50 (RERF-LC-MS; Homo sapiens, RERF-LC-MS): > 2 µM
- IC50 (RPMI-7951; Homo sapiens, RPMI-7951): > 2 µM
- IC50 (SCC-9; Homo sapiens, SCC-9): > 2 µM
- IC50 (SNU-423; Homo sapiens, SNU-423): > 2 µM
- IC50 (SNU-449; Homo sapiens, SNU-449): > 2 µM
- IC50 (SW1417; Homo sapiens, SW1417): > 2 µM
- IC50 (SW1573; Homo sapiens, SW1573): > 2 µM
- IC50 (SW1783; Homo sapiens, SW1783): > 2 µM
- IC50 (SW-620; Homo sapiens, SW-620): > 2 µM
- IC50 (SW756; Homo sapiens, SW756): > 2 µM
- IC50 (SiHa; Homo sapiens, SiHa): > 2 µM
- IC50 (8505C; Homo sapiens, 8505C): > 2 µM
- IC50 (A 172; Homo sapiens, A 172): > 2 µM
- IC50 (A549; Homo sapiens, A549): > 2 µM
- IC50 (AN3-CA; Homo sapiens, AN3-CA): > 2 µM
- IC50 (C-33-A; Homo sapiens, C-33-A): > 2 µM
- IC50 (UO-31; Homo sapiens, UO-31): > 2 µM
- IC50 (CAMA-1; Homo sapiens, CAMA-1): > 2 µM
- IC50 (CAPAN-1; Homo sapiens, CAPAN-1): > 2 µM
- IC50 (CHL-1; Homo sapiens, CHL-1): > 2 µM
